Assay results: patent publication US9464326B2, “Total and phosphorylated IL-1 receptor-associated kinase-1 and IL-1 receptor-associated kinase-4 as a biomarker for cancer progression and chemotherapy resistance” (University of Maryland, Baltimore, priority 2012, dated 2016)

How the values were obtained:
[1] = tested on: CEM-C7; test: Proliferation (3H-thymidine) of CEM-C7; assay type: cell-based, human; conditions: 3H-thymidine uptake, 72 h
Text: (§1) CCRF-CEM, CEM/C1, CEM/C2, CEM-C7, Jurkat, Loucy, Molt-4, HSB-2, SUP-T1, Hut 78, HH, Hut 102, MO, and H9 T-leukemia and T-lymphoma cell lines were purchased from the American Type Culture Collection (Manassas, Va., USA). All of the cell lines were initially expanded and cryopreserved within one month of receipt. Cells were typically used for 6 months at which time a fresh vial of cryopreserved cells was used. Total T cells from healthy donors were isolated via negative selection followed by positive selection using a CD3+ selection kit (Invitrogen, Carlsbad, Calif.). T cells were isolated from patients with T-ALL bone marrow or peripheral blood samples containing more than 70% leukemia cells using a CD2+ isolation kit (STEMCELL Technologies, Vancouver, Canada). All tissues were collected under institutional IRB-approved protocols and all participants gave written informed assent/consent. For in vitro experiments, T-ALL cells were cultured in AIM-V medium supplemented with 20% human AB serum in the presence of recombinant human stem cell factor (50 ng/mL; Amgen, Thousand Oaks, Calif.), insulin (20 nM; Sigma-Aldrich, St Louis, Mo., USA) and IL-7 (50 ng/mL; R&D Systems, Minneapolis, Minn., USA). In other experiments, protein lysate was collected using the Full Moon Biosystems (Sunnyvale, Calif., USA) buffer prior to protein examination by western blot or protein array.
(§2) Cells were cultured in a 96-well plate (Corning Costar, Corning, N.Y., USA) with various concentrations of TLR ligands 1-9, starting at 10 μg/ml, in a final volume of 200 ul. TLR ligands were diluted 2-fold. Cell lines (25-40×10^3/well) were cultured for 54 hours, whereas fresh patient-derived T-ALL cells (200×10^3/well) were cultured for 30 hours prior to adding [^3H]-thymidine for 18 hours. After this time point, cells were harvested with a Packard Filter-Mate-96 cell harvester (Perkin Elmer, Waltham, Mass., USA) and counted on Packard Top Count-NXT (Perkin Elmer, Waltham, Mass., USA). Results were expressed as average counts per minute (cpm). In some experiments CCRF-CEM cells were pre-treated with TLR1-TLR2 ligand (Pam3CysK4; 2.5 ug/ml) for 48 hrs, washed, and then cultured in the presence of varying concentrations of FBS. Forty-eight hours later, proliferation (±SD) was determined by ^3H-thymidine incorporation. Alternatively, apoptosis was measured by flow cytometry after staining cells with Annexin-V (BD Pharmingen, San Diego, Calif., USA) and propidium iodide (Sigma). Cell number was counted under microscopy by staining cells with trypan blue.
(§3) The following TLR ligands were purchased from Invivogen (San Diego, Calif., USA): tripalmitoyl-S-(bis(palmitoyloxy)propyl)-Cys-Ser-(Lys)3-Lys (TLR1-2); Poly I:C (TLR3); ultrapure S. Minnesota Lipopolysaccharide (TLR4); S. typhimurium flagellin (TLR5); FSL-1 (TLR2/6); Imiquimod (TLR7); ssRNA40/Lyovec (TLR8); CpG-ODN 2006 (TLR9).

[2] = tested on: stage IA cutaneous T-lymphoma; conditions: topical cream containing 5% Imiquimod; cited from earlier work
[3] = tested on: CCRF-CEM; test: Proliferation (3H-thymidine) of CCRF-CEM; assay type: cell-based, human; conditions: 3H-thymidine uptake, 72 h
Text: as §1, §2, §3

[4] = tested on: Jurkat; test: Proliferation (3H-thymidine) of Jurkat; assay type: cell-based, human
Text: as §1
as §2, with “blue. […]” for “blue.”

[5] = tested on: HSB-2; test: Proliferation (3H-thymidine) of HSB-2; assay type: cell-based, human
Text: as §1, §2, §3

[6] = tested on: CEM-C2; test: Proliferation (3H-thymidine) of CEM-C2; assay type: cell-based, human; conditions: 3H-thymidine uptake, 72 h
Text: as §1
as §2, with “blue. […]” for “blue.”

[7] = tested on: Primary T-cells Non-Act; test: Proliferation (3H-thymidine) of non-activated primary T-cells; assay type: cell-based, human; conditions: 3H-thymidine uptake, 72 h
Text: as §1, with “In other experiments, protein lysate was collected using the Full Moon Biosystems (Sunnyvale, Calif., USA) buffer prior to protein examination by western blot or protein array.” left out
(§4) Cells were cultured in a 96-well plate (Corning Costar, Corning, N.Y., USA) with various concentrations of TLR ligands 1-9, starting at 10 μg/ml, in a final volume of 200 ul. […] After this time point, cells were harvested with a Packard Filter-Mate-96 cell harvester (Perkin Elmer, Waltham, Mass., USA) and counted on Packard Top Count-NXT (Perkin Elmer, Waltham, Mass., USA). Results were expressed as average counts per minute (cpm). […] Forty-eight hours later, proliferation (±SD) was determined by ^3H-thymidine incorporation. Alternatively, apoptosis was measured by flow cytometry after staining cells with Annexin-V (BD Pharmingen, San Diego, Calif., USA) and propidium iodide (Sigma). Cell number was counted under microscopy by staining cells with trypan blue. […]

[8] = tested on: CEM-C1; test: Proliferation (3H-thymidine) of CEM-C1; assay type: cell-based, human; conditions: 3H-thymidine uptake, 72 h
Text: as §1
as §2, with “blue. […]” for “blue.”

[9] = tested on: Hut 102; test: Proliferation (3H-thymidine) of Hut 102; assay type: cell-based, human; conditions: 3H-thymidine uptake, 72 h
Text: as §1, with “In other experiments, protein lysate was collected using the Full Moon Biosystems (Sunnyvale, Calif., USA) buffer prior to protein examination by western blot or protein array.” left out
as §4

[10] = tested on: HH; test: Proliferation (3H-thymidine) of HH; assay type: cell-based, human; conditions: 3H-thymidine uptake, 72 h
Text: as §1, with “In other experiments, protein lysate was collected using the Full Moon Biosystems (Sunnyvale, Calif., USA) buffer prior to protein examination by western blot or protein array.” left out
as §4

[11] = tested on: MO; test: Proliferation (3H-thymidine) of MO; assay type: cell-based, human; conditions: 3H-thymidine uptake, 72 h
Text: as §1, with “In other experiments, protein lysate was collected using the Full Moon Biosystems (Sunnyvale, Calif., USA) buffer prior to protein examination by western blot or protein array.” left out
as §4

[12] = tested on: Primary T-cells Activated; test: Proliferation (3H-thymidine) of activated primary T-cells; assay type: cell-based, human; conditions: Primary T-cells, Activated
Text: as §1, §2, §3

[13] = tested on: Molt-4; test: Proliferation (3H-thymidine) of Molt-4; assay type: cell-based, human; conditions: 3H-thymidine uptake, 72 h
Text: as §1, with “In other experiments, protein lysate was collected using the Full Moon Biosystems (Sunnyvale, Calif., USA) buffer prior to protein examination by western blot or protein array.” left out
as §4

[14] = tested on: H9; test: Proliferation (3H-thymidine) of H9; assay type: cell-based, human; conditions: H9; 3H-thymidine uptake, 72 h
Text: as §1, §2, §3

[15] = tested on: SupT1; test: Proliferation (3H-thymidine) of SupT1; assay type: cell-based, human; conditions: SupT1
Text: as §1, §2, §3

[16] = tested on: Loucy; test: Proliferation (3H-thymidine) of Loucy; assay type: cell-based, human; conditions: 3H-thymidine uptake, 72 h
Text: as §1
as §2, with “blue. […]” for “blue.”

[17] = tested on: Hut-78; test: Proliferation (3H-thymidine) of Hut-78; assay type: cell-based, human; conditions: 3H-thymidine uptake, 72 h
Text: as §1, with “In other experiments, protein lysate was collected using the Full Moon Biosystems (Sunnyvale, Calif., USA) buffer prior to protein examination by western blot or protein array.” left out
as §4

Structure (SMILES): CC(C)Cn1cnc2c(N)nc3ccccc3c21 [Imiquimod]
- Proliferative effects of TLR ligands [1]: ∘
- treatment outcome [2]: successfully treated
- Proliferative effects of TLR ligands [3]: ∘
- Proliferative effects of TLR ligands ([4]; 3H-thymidine uptake, 72 h): − (reduced proliferation)
- TLR ligand concentration in parentheses below the symbol ([4]; no unit in table (μg/ml)): (10)
- Proliferative effects of TLR ligands ([5]; 3H-thymidine uptake, 72 h): − (reduced proliferation)
- TLR ligand concentration in parentheses below the symbol ([5]; no unit in table (μg/ml)): (1.2)
- Proliferative effects of TLR ligands [6]: ∘
- Proliferative effects of TLR ligands [7]: ∘
- Proliferative effects of TLR ligands [8]: ∘
- Proliferative effects of TLR ligands [9]: ∘
- Proliferative effects of TLR ligands [10]: ∘
- Proliferative effects of TLR ligands [11]: ∘
- Proliferative effects of TLR ligands ([12]; 3H-thymidine uptake, 72 h): − (reduced proliferation)
- TLR ligand concentration in parentheses below the symbol ([12]; no unit in table (μg/ml)): (5)
- Proliferative effects of TLR ligands [13]: ∘
- Proliferative effects of TLR ligands [14]: ∘
- Proliferative effects of TLR ligands ([15]; 3H-thymidine uptake, 72 h): − (reduced proliferation)
- TLR ligand concentration in parentheses below the symbol ([15]; no unit in table (μg/ml)): (0.6)
- Proliferative effects of TLR ligands [16]: ∘
- Proliferative effects of TLR ligands [17]: ∘
